# Test results: patent US20260209234A1, “SUBSTITUTED DIHYDROPYRROLO[3,4-D]PYRIMIDINE COMPOUNDS AND THEIR USE IN TREATING MEDICAL CONDITIONS” (Karuna Therapeutics, Inc., priority 2022, published 2026)
# Columns and labels:
# [1] = biological target: T1, rM4 receptors (Rattus norvegicus, UniProt P08485); test: Rat M4 PAM pERK assay; type: cell-based; details: CHO cells expressing rM4; EC20 of acetylcholine (10 nM final); TR-FRET
# T1 construct: expressed in transfected cells; host or cells: CHO cells
# T1 sequence (P08485 1-478): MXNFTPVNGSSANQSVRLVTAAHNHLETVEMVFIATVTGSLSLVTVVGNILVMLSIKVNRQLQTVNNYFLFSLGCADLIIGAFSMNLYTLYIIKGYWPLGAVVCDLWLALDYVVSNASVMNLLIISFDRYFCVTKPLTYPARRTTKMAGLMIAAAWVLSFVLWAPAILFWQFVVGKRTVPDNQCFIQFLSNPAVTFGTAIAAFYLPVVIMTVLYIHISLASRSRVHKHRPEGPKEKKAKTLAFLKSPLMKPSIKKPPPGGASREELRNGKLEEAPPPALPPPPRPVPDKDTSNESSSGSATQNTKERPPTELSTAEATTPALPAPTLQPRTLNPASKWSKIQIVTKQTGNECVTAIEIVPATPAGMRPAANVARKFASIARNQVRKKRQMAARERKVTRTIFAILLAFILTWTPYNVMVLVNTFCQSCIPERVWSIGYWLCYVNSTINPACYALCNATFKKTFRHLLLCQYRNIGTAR
# [2] = tested on: Sprague Dawley rats pre-treated with amphetamine; test: Amphetamine-evoked hyperlocomotion in rats; type: in vivo, rat; details: male Sprague Dawley rats; 0.5 mg/kg amphetamine s.c.; open field, distance traveled
# Description: Animals: Adult male, Sprague Dawley rats (Envigo, Indianapolis, IN, USA) were housed in a colony maintained at 23° C. with 12 hour light/dark cycles (lights on at 0600 hour). All animals weighed 290-330 g at the beginning of the study and were equally divided into 5 groups (n=8 per group) and received one of the treatment conditions listed below. Animal protocols were approved by an Animal Care and Use Committee.
# Behavioral Procedures: Studies were conducted in MedAssociates open field chambers (27.3 cm×27.3 cm×20.3 cm, MedAssociates, St. Albans, VT) in which movement was automatically tracked and recorded by 16 beam arrays. Administration pretreatment of the test article was determined to coincide with Tmax at the time of the amphetamine-evoked session with optimal route of administration. All groups were subcutaneously treated with 0.5 mg/kg amphetamine (AMP). […] Locomotor data (distance traveled) was recorded as 5-minute bins throughout the 90-minute session. […]
# Statistical Analysis: Spontaneous locomotion (prior to AMP administration) was calculated as the total distance traveled during the first 30 minutes of the experimental session. AMP-evoked responses were calculated as the total distance traveled during the last 60 minutes of the experimental session which commenced immediately after AMP administration. Locomotor data were analyzed by a one-way ANOVA. […]
SMILES,EC50 [1],Dose Amount of Compound at which rats displayed a reduction in amphetamine-evoked hyperlocomotion activity [2]
"COc1nc(C#N)nc2c1C(C)N(C(=O)CC1CN(c3ccnc(C(F)(F)F)c3)C1)C2 (single isomer, unassigned) [Compound I-6, 4-Methoxy-5-methyl-6-(2-(1-(2-(trifluoromethyl)pyridin-4-yl)azetidin-3-yl)acetyl)-6,7-dihydro-5H-pyrrolo[3,4-d]pyrimidine-2-carbonitrile]",100 to 500 nM,>32 mg/kg
"COc1nc(C)nc2c1C(C)N(C(=O)CC1CN(c3ccnc(C(F)(F)F)c3)C1)C2 (single isomer, unassigned) [Compound I-52, 1-(4-Methoxy-2,5-dimethyl-5,7-dihydro-6H-pyrrolo[3,4-d]pyrimidin-6-yl)-2-(1-(2-(trifluoromethyl)pyridin-4-yl)azetidin-3-yl)ethan-1-one]",100 to 500 nM,32 mg/kg
